Values after ≈ are worked out from the molar mass of the structure shown. Read-outs that look alike come from different tables or passages of the source.
Key:
[1] = cited from earlier work
[2] = Solubility determination in distilled water (HPLC); format: physicochemical; conditions: +37 °C
Procedure: The amount of Cur was determined by using a high performance liquid chromatography (HPLC) system (Agilent 1200, Santa Clara, CA) with column Zorbax Eclipse XDB-C18, 4.6 × 50 mm at +30 °C and diode-array detector. Acetonitrile–acetate buffer (55:45) was used as eluent (pH = 3.4) with flow rate of 1.0 mL/min, and detection wavelength was 430 nm. […] At last, sample solutions were filtered and analyzed by HPLC.

U-87 MG cells = test: MTT cytotoxicity test, U-87 MG; format: cell-based, human
Procedure: (§1) Cancer cell lines U-87 MG (glioblastoma) and MCF-7 (breast cancer) were obtained from the ATCC (ATCC number HTB-14 and HTB-22, respectively). Immortalized human fibroblasts used as normal cells were kindly provided by Alexander G. Shilov (Institute of Cytology and Genetics SB RAS). The cells were maintained in DMEM plus 10% FBS, under a temperature of 37 °C, atmosphere of 5% of CO2 and 90% humidity.
(§2) MTT test was performed according to a standard procedure (Mosmann, [1983]). Cells were seeded in a 96-well plate at a density of 5 × 10^3 cells/well and after 24 h of adherence, the cells were treated with different concentration of test compounds and incubated for 48 h at 37 °C in an atmosphere of 5% CO2 in air. Untreated cells were used as negative control and doxorubicin was used as a positive control. After the incubation period, 10 μL MTT solution (3 mg/mL of PBS) was added to each well followed by incubation for 3 h under the condition mentioned above. Then, the MTT-containing medium was removed and the formazan crystals were dissolved with 100 μL of isopropanol. Absorbance was measured at 630 and 492 nm using a microplate reader (Thermo Scientific, Waltham, MA). The cell viability percentage was calculated using the following formula: Viability (%)=OD (treated cells)/OD (untreated cells) × 100, where OD was an optical density of solution.

[3] = Oral pharmacokinetic (bioavailability) study in rats; format: in vivo; conditions: male, Sprague Dawley; rat plasma, single oral dose 150 mg/kg Cur
Procedure: The pharmacokinetic study was carried out in male Sprague Dawley rats (10 weeks of age, 250–260 g body weight, provided by the Zhejiang Academy of Medical Science, Hangzhou, China). All animal (used in this experiment) handling procedures were performed in strict compliance with the PR China legislation for the use and care of laboratory animals and were approved by the University Committee for Animal Experiments. The animals were fasted overnight (12 h) and had free access to drinking water throughout the experimental period. […] To evaluate the concentration of Cur in plasma, blood was collected into heparinized Eppendroff tubes at different time points: 0.083, 0.25, 0.5, 1, 2, 4, 6, 8, 12, and 24 h post-dosing and centrifuged (Sigma Laboratory Centrifuge, Model 3K-30, Osterode am Harz, Germany) at 9391 × g for 5 min to separate the plasma. The plasma samples were stored at –80 °C until further analysis.
A 100 μL aliquot of plasma was transferred to a clean microcentrifuge tube and next treated with 100 μL of a solution containing 1000 U of β-glucuronidase in 0.1 M phosphate buffer (pH 6.8). The resulting mixture was then thoroughly vortexed and incubated at 37 °C for 1 h to hydrolyze the conjugated Cur. After incubation, 0.1 mL acetonitrile was added to 0.1 mL of plasma and centrifuged (Sigma Laboratory Centrifuge, Model3K-30, Osterode am Harz, Germany) at 9391 × g for 15 min, and then the supernatant was subjected to be analyzed by HPLC.
Standard pharmacokinetic parameters for free Cur and Cur SDs were calculated by linear trapezoidal method using the PKSolver, a freely available menu-driven add-in program for Microsoft Excel. The results were presented as mean ± standard error of the mean (SEM). One-way analysis of variance (ANOVA) was followed by Dunnett’s test for multiple comparisons statistical evaluation. p Values <.05 were considered significant.

[4] = set-up: method as in Priyadarsini, 2014; conditions: acidic and neutral pH; ref Priyadarsini, 2014; cited from earlier work
[5] = Molecular weight distribution by gel permeation chromatography; format: physicochemical; conditions: dissolved in water
Procedure: The molecular weight distribution (MWD) of the samples was investigated by gel permeation chromatography (GPC) on the Agilent 1200 chromatograph with column PL aquel-OH 40 (Santa Clara, CA), 300 × 7.5 mm column at 30 °C with refractometric detector. The solvent used was 0.02% NaN3 aqueous solution and flow rate was 1 mL/min. The calibration was performed by standard dextrans with molecular weights of 1, 5, 12, 25, 80, 150, 270, and 410 kDa. Agilent GPC data analysis program was used to process the results (Santa Clara, CA).

MCF-7 cells = test: MTT cytotoxicity test, MCF-7; format: cell-based, human; conditions: for Viability: 48 h
Procedure: as §1, §2

[6] = tested on: immortalized human fibroblasts; test: MTT cytotoxicity test, immortalized human fibroblasts; format: cell-based; conditions: for Viability: 48 h
Procedure: as §1, §2

CC1(C)[C@@H](O[C@H]2O[C@H](C(=O)O)[C@@H](O)[C@H](O)[C@H]2O[C@@H]2O[C@H](C(=O)O)[C@@H](O)[C@H](O)[C@H]2O)CC[C@]2(C)[C@H]3C(=O)C=C4[C@@H]5C[C@@](C)(C(=O)O)CC[C@]5(C)CC[C@@]4(C)[C@]3(C)CC[C@@H]12 [GA, Glycyrrhizic acid]
Molecular weight of micelles formed in water ([1]; dissolved in water, ref Dushkin & Tolstikova, 2012): 66 kDa
Critical micelle concentration ([1]; ref Kornievskaya et al., 2007, Polyakov, 2011): ~1 mM

COc1cc(/C=C/C(=O)CC(=O)/C=C/c2ccc(O)c(OC)c2)ccc1O [Free Cur, Curcumin]
solubility at 12 h [2]: 1.73 µg/mL (≈ 4.7 µM)
Mean cell survival (U-87 MG cells; Cur concentration range 25–100 μM, 48 h): above 80%
AUC(0-inf) [3]: 14300 ± 720 ng·h/mL
AUC(0-t) [3]: 12100 ± 360 ng·h/mL
Cmax [3]: 1480 ± 30 ng/mL
Tmax [3]: 0.25 h
half-life [3]: 5.07 ± 0.41 h
Solubility in water [4]: practically insoluble

CC1(C)[C@@H](O[C@H]2O[C@H](C(=O)[O-])[C@@H](O)[C@H](O)[C@H]2O[C@@H]2O[C@H](C(=O)O)[C@@H](O)[C@H](O)[C@H]2O)CC[C@]2(C)[C@H]3C(=O)C=C4[C@@H]5C[C@@](C)(C(=O)[O-])CC[C@]5(C)CC[C@@]4(C)[C@]3(C)CC[C@@H]12.[Na+].[Na+] [Na2GA, disodium glycyrrhizin]
Molecular weight of micelles formed in water [5]: 85–90 kDa
Viability (MCF-7 cells; MCF-7, 25 μM): 98.2 ± 2.13%
Viability (MCF-7 cells; MCF-7, 50 μM): 97.8 ± 3.33%
Viability (MCF-7 cells; MCF-7, 100 μM): 98.2 ± 0.41%
Viability (MCF-7 cells; MCF-7, 200 μM): 98.7 ± 1.59%
Viability (MCF-7 cells; MCF-7, 400 μM): 99.6 ± 1.34%
Cytotoxicity (MCF-7 cells; MCF-7, 25–400 μM): no cytotoxicity
Viability (U-87 MG cells; 25 μM, 48 h): 96.6 ± 2.39%
Viability (U-87 MG cells; 50 μM, 48 h): 95.9 ± 1.16%
Viability (U-87 MG cells; 100 μM, 48 h): 92.2 ± 2.75%
Viability (U-87 MG cells; 200 μM, 48 h): 92.2 ± 2.63%
Viability (U-87 MG cells; 400 μM, 48 h): 92.9 ± 1.65%
Cytotoxicity (U-87 MG cells; 25–400 μM): no cytotoxicity
Viability ([6]; 25 μM): 96.2 ± 2.78%
Viability ([6]; 50 μM): 97.3 ± 1.73%
Viability ([6]; 100 μM): 98.8 ± 4.18%
Viability ([6]; 200 μM): 96.0 ± 1.66%
Viability ([6]; 400 μM): 98.3 ± 0.90%
Cytotoxicity ([6]; 25–400 μM): no cytotoxicity

Source: PMC6058497 (Drug Delivery, 2018)
